pIC50: −log10 of the molar value. Active and inactive are the calls of the source. No cut-off for these calls is given here.
Tests used:
[1] = system: PC-3; experiment: Induction of apoptosis in human PC3 cells assessed as DNA fragmentation at 5 ug/mL after 24 hrs by ELISA relative to control; assay type: functional
[2] = Cytotoxicity against human RC58T/h/SA#4 cells after 24 hrs by SRB assay; assay type: functional, cell-based
[3] = system: LNCaP; experiment: Cytotoxicity against human LNCap cells after 24 hrs by SRB assay; assay type: functional, cell-based
[4] = system: PC-3; experiment: Cytotoxicity against human PC3 cells after 24 hrs by SRB assay; assay type: functional, cell-based; conditions: PC-3, 24 h
[5] = system: DU-145; experiment: Cytotoxicity against human DU145 cells after 24 hrs by SRB assay; assay type: functional, cell-based; conditions: DU-145, 24 h
[6] = system: PC-3; experiment: Growth inhibition of human PC3 cells by SRB assay; assay type: functional, cell-based; conditions: TDE = time-dependent effect
[7] = system: PC-3; experiment: Growth inhibition of human PC3 cells assessed as decrease in cell numbers by trypan blue assay; assay type: functional, cell-based
[8] = system: PC-3; experiment: Induction of cell death in human PC3 cells by trypan blue assay; assay type: functional, cell-based
[9] = system: PC-3; experiment: Induction of apoptosis in human PC3 cells after 24 hrs by Hoechst staining; assay type: functional, cell-based
[10] = system: PC-3; experiment: Induction of apoptosis in human PC3 cells assessed as DNA fragmentation at 10 ug/mL after 24 hrs by ELISA relative to control; assay type: functional
[11] = system: PC-3; experiment: Induction of apoptosis in human PC3 cells assessed as DNA fragmentation at 20 ug/mL after 24 hrs by ELISA relative to control; assay type: functional
[12] = system: PC-3; experiment: Cell cycle arrest in human PC3 cells assessed as accumulation at subG1 phase after 24 hrs by flow cytometry; assay type: functional, cell-based
[13] = system: PC-3; experiment: Induction of PARP cleavage in human PC3 cells after 24 hrs by Western blot; assay type: functional, cell-based
[14] = system: PC-3; experiment: Induction of apoptosis in human PC3 cells assessed as caspase 8 activity at 10 ug/mL relative to control; assay type: functional
[15] = system: PC-3; experiment: Induction of apoptosis in human PC3 cells assessed as caspase 9 activity at 10 ug/mL relative to control; assay type: functional
[16] = system: PC-3; experiment: Induction of apoptosis in human PC3 cells assessed as caspase 3 activity at 10 ug/mL relative to control; assay type: functional
[17] = system: PC-3; experiment: Reversal of induction of apoptosis in human PC3 cells in presence of caspase inhibitor Z-VAD-fmk; assay type: functional, cell-based
[18] = system: PC-3; experiment: Induction of cell death in human PC3 cells in presence of caspase inhibitor Z-VAD-fmk; assay type: functional, cell-based
[19] = system: PC-3; experiment: Increase in Bax protein expression in human PC3 cells by Western blot; assay type: functional, cell-based
[20] = system: PC-3; experiment: Decrease in Bcl2 protein expression in human PC3 cells by Western blot; assay type: functional, cell-based
[21] = system: PC-3; experiment: Induction of Bid protein cleavage in human PC3 cells by Western blot; assay type: functional, cell-based
[22] = system: PC-3; experiment: Induction of AIF protein translocation into nucleus in human PC3 cells after 24 hrs by immunostaining; assay type: functional, cell-based
[23] = system: PC-3; experiment: Induction of apoptosis in human PC3 cells assessed as caspase 3 activity at 5 ug/mL; assay type: functional, cell-based
[24] = system: PC-3; experiment: Induction of apoptosis in human PC3 cells assessed as caspase 3 activity at 10 ug/mL; assay type: functional, cell-based
[25] = system: PC-3; experiment: Induction of apoptosis in human PC3 cells assessed as caspase 3 activity at 20 ug/mL; assay type: functional, cell-based
[26] = system: PC-3; experiment: Increase in AIF protein levels in human PC3 cells after 24 hrs by Western blot; assay type: functional, cell-based

With C=CC[S+]([O-])SC (configuration not stated) the Fold change [1] was 1.3, the pIC50 [2] was 4.60 and the pIC50 [3] was 4.53. For the same compound, the pIC50 [4] was 4.20, the pIC50 [5] was 4.07 and the Activity [6] was “tde”. For the same compound, the Activity [7] was “Dose-dependent effect”, the Activity [8] was “Dose-dependent effect” and the Activity [9] was “Active”. The Fold change [10] was 1.7, the Fold change [11] was 1.8 and the Activity [12] was “Dose-dependent effect”. For the same compound, the Activity [13] was “Active”, the Fold change [14] was 1.9 and the Fold change [15] was 2.1. For the same compound, the Fold change [16] was 1.7, the Activity [17] was “Active” and the Activity [18] was “Active”. For the same compound, the Activity [19] was “Dose-dependent effect”, the Activity [20] was “Dose-dependent effect” and the Activity [21] was “Active”. The Activity [22] was “Active”, the Activity [23] was “Active” and the Activity [24] was “Active”. The Activity [25] was “Active” and the Activity [26] was “Active”.
Compound CS[S+](C)[O-] (configuration not stated) has a Fold change [1] of 1.3, a pIC50 [2] of 4.02 and a pIC50 [3] of 3.99. For the same compound, the pIC50 [4] was 3.78, the pIC50 [5] was 3.74 and the Activity [6] was “tde”. The Activity [7] was “Dose-dependent effect”, the Activity [8] was “Dose-dependent effect” and the Activity [9] was “Active”. The Fold change [10] was 1.7, the Fold change [11] was 1.8 and the Activity [12] was “Dose-dependent effect”. For the same compound, the Activity [13] was “Active”, the Fold change [14] was 1.9 and the Fold change [15] was 2.1. The Fold change [16] was 1.7, the Activity [17] was “Active” and the Activity [18] was “Active”. For the same compound, the Activity [19] was “Dose-dependent effect”, the Activity [20] was “Dose-dependent effect” and the Activity [21] was “Active”. For the same compound, the Activity [22] was “Active”, the Activity [23] was “Active” and the Activity [24] was “Active”. For the same compound, the Activity [25] was “Active” and the Activity [26] was “Active”.

Reference: ChEMBL document CHEMBL1142283, “Thiosulfinates from Allium tuberosum L. induce apoptosis via caspase-dependent and -independent pathways in PC-3 human prostate cancer cells” (Bioorg Med Chem Lett, 2008)
